The record followed here is patent US20210353624A1, “METHOD OF TREATING CANCER WITH TELOTRISAT OR A PRODRUG THEREOF” (TerSera Therapeutics LLC, priority 2020, published 2021).

Holding throughout (type): in vivo, human
The subject of one experiment is u5-HIAA. Description: Biomarker changes after TE initiation (TELEACE): u5-HIAA. To be noted: n=22. The procedure: (§1) This example provides the effects of telotristat ethyl treatment on selected patient biomarkers (i.e., u5-HIAA; CgA; 5-HT; and NT-proBNP) in the retrospective, single arm study of Example 4.
(§2) The average (SD) duration of documented TE treatment was 12.0 (7.3) months with a median (IQR) of 9.0 (6.8, 15.2) months. In many cases, a patient received a TE dosage of 250 mg three times per day.
The continuous measures of biomarker values pre- and post-TE initiation were described using mean, SD, median, and IQR. The biomarkers were assessed only among patients with complete biomarker assessment results in both pre-TE and post-TE initiation periods. A Wilcoxon signed rank test was used to calculate P-values for the mean change in biomarker value.
(§3) Patients with reported biomarker values below, at, or above normal range in pre-TE and post-TE initiation periods were described using proportions and frequencies. The biomarkers were assessed only among patients with complete biomarker assessment results in both pre-TE and post-TE initiation periods. McNemar's test was used to calculate P-values for the differences in paired proportions of patients with values above the upper limit of normal.
To evaluate the relationship between the change in biomarker values (i.e., u5-HIAA; CgA; 5-HT) and the change in tumor progression between the pre- and post-TE periods, Pearson's correlation coefficient was used to assess the correlation between biomarker assessments and tumor sizes and to derive the associated P-values. The correlations were assessed only among patients with complete biomarker assessment results in both pre-TE and post-TE initiation periods. The relationship between biomarker values and tumor sizes during pre-TE and post-TE initiation period was presented using scatterplots.
(§4) For the biomarker results below, the pre-TE initiation period is defined as 12 months before the index date (initiation of TE). The assessment closest to the index date during the pre-TE period was reported for each biomarker.
(§5) The post-TE initiation period is defined as a period from index date to the earlier of end of treatment with TE or date of chart abstraction. The assessment closest to the date of chart abstraction during the post-TE period was reported for each biomarker.
(§6) The data includes patients with reported biomarker values, units, and laboratory ranges during pre- and post-TE initiation periods. It excludes patients who had different biomarker units or laboratory ranges reported pre- and post-TE initiation.
(§7) The normal range was defined by reported laboratory lower limit of normal and upper limit of normal.
The values in Table 5-1 have been converted to mg/24 hours based on the following conversion rate: […]. The Wilcoxon signed rank test was used to calculate P-values for the mean change in biomarker values pre- and post-TE initiation.
Table 5-4 is based on patients who had complete biomarker assessment results (u5-HIAA: N=22; 5-HT: N=22) in both pre-TE and post-TE initiation periods. Correlation analysis was not conducted for CgA and NT-proBNP due to small sample sizes for CgA (n=15) and NT-proBNP (n=2). Pearson's correlation coefficient was used to assess the correlation between biomarker assessments and tumor sizes and to derive the associated P-values. Values have been converted to mg/24 hours based on the following conversion rate: […].

The subject of another experiment is CgA. Description: Biomarker changes after TE initiation (TELEACE): CgA. To be noted: n=15. The procedure: as §1, §2, §3, §4, §5, §6, §7
McNemar's test could not be performed because all patients had CgA value above normal range pre-TE initiation.

Experiment [1] in a line: Changes in carcinoid syndrome symptoms, body weight and ECOG Performance Status after TE initiation (TELEACE). The source says:
Time to tumor progression was defined as the time from telotristat ethyl initiation to the first documented tumor progression in the medical chart. […] Progression-free survival (PFS) was defined as the time from telotristat ethyl initiation to tumor progression or death. […] Physician-assessed changes in body weight, Eastern Cooperative Oncology Group (ECOG) Performance Status, and CS symptoms including diarrhea, flushing, abdominal pain, nausea and ascites were abstracted from medical charts before and after telotristat ethyl initiation. In order to evaluate the effect of telotristat ethyl treatment on secondary clinical outcomes, analyses were conducted in the overall population and in a subgroup of patients who had the same documented non-telotristat ethyl neuroendocrine tumor treatment before and after telotristat ethyl initiation. Descriptive statistics summarized patient demographic and clinical characteristics, and changes in body weight and ECOG Performance Status after telotristat ethyl treatment initiation. Kaplan-Meier analyses estimated median time to tumor progression and median PFS. Chi-square test evaluated changes in documented CS symptoms (improved vs same/worsened) before and after telotristat ethyl initiation. All analyses were performed using SAS version 9.4 (SAS Institute, Cary, N.C., USA). To evaluate the change in CS symptoms, weight, and ECOG performance status between the pre- and post-TE periods, patients with documented CS symptoms (i.e., abdominal pain, ascites, diarrhea, flushing, nausea) pre-TE initiation were described using proportions and frequencies. The change in documented CS symptoms, weight, and ECOG performance status after TE Initiation (i.e., improved/increased, stayed the same/remained unchanged, worsened/decreased) were also described using proportions and frequencies. P-values were calculated using Chi-square test for equal proportions for change in CS symptoms (i.e., proportion of patients with improved vs. stayed the same/worsened CS symptoms).

Regarding `CCOC(=O)[C@@H](N)Cc1ccc(-c2cc(O[C@H](c3ccc(Cl)cc3-n3ccc(C)n3)C(F)(F)F)nc(N)n2)cc1` [telotristat ethyl, (S)-ethyl 2-amino-3-(4-(2-amino-6-((R)-1-(4-chloro-2-(3-methyl-1H-pyrazol-1-yl)phenyl)-2,2,2-trifluoroethoxy)pyrimidin-4-yl)phenyl)propanoate], the “u5-HIAA Below normal range Post-TE, n (%)” value with u5-HIAA (pre-TE 0 (0)) is listed as 0 (0) n (%). The “u5-HIAA At normal range Post-TE, n (%)” value in the experiment on u5-HIAA (pre-TE 1 (4.5)) is 2 (9.1) n (%). Also, the “u5-HIAA Above normal range Post-TE, n (%)” value with u5-HIAA (pre-TE 21 (95.5), P=0.317) was 20 (90.9) n (%). Besides, the “u5-HIAA Measurement (mg/24 hours) Post-TE Initiation, Median (IQR)” value in the experiment on u5-HIAA (pre-TE 42.0 (25.0, 65.0)) was 25.0 (16.0, 44.0) mg/24 hours. The “u5-HIAA Measurement (mg/24 hours) Post-TE Initiation, Mean ± SD” value in the experiment with u5-HIAA (pre-TE 72.5 ± 98.0, P<0.001) worked out at 43.6 ± 54.7 mg/24 hours. Besides, in the experiment with CgA, the “patients with CgA above normal range pre-TE who had normal CgA value post-TE initiation” value was about 30%. Also, in the experiment on CgA (pre-TE 0 (0)), the “CgA At normal range Post-TE, n (%)” value is listed as 4 (26.7) n (%) and the “CgA Below normal range Post-TE, n (%)” value is 0 (0) n (%). Besides, the “CgA Above normal range Post-TE, n (%)” value in the experiment with CgA (pre-TE 15 (100.0)) is listed as 11 (73.3) n (%). Also, the “Body weight and ECOG Performance Status after telotristat ethyl” value in experiment [1] (overall population and same NET treatment subgroup) is on record as “improved or unchanged for most patients”. Further, in experiment [1] (overall population, n=41), the “patients with improvement in nausea after TE initiation” value is on record as 78%. Further, the “patients with improvement in abdominal pain after TE initiation” value in experiment [1] (overall population, n=69) stood at 81%. The “patients with improvement in flushing after TE initiation” value in experiment [1] (overall population, n=88) is 81%. The “patients with improvement in diarrhea after TE initiation” value in experiment [1] (overall population, n=133) is on record as 85%.
